# Experimental data: patent US20240109972A1, “ANTIBODY AND TAXANE COMBINATION THERAPY” (Genmab A/S, priority 2020, published 2024)
# Tested on: solid malignant tumors
# Assay: GEN1046 Phase I dose escalation (NCT03917381), response by RECIST v1.1
# Type: in vivo, human
# Details: for CR (Complete Response), patients / Confirmed CR (Complete Response), patients / Confirmed Disease Control (PR + PR + SD) Rate, % / Confirmed Disease Control (PR + PR + SD) Rate, patients / Confirmed NE (Not Evaluable), % of patients / Confirmed NE (Not Evaluable), patients / Confirmed Objective Response (CR + PR) Rate, patients / Confirmed PD (Progressive Disease), % of patients / Confirmed PD (Progressive Disease), patients / Confirmed PR (Partial Response), patients / Confirmed SD (Stable Disease), % of patients / Confirmed SD (Stable Disease), patients / Disease Control (PR + PR + SD) Rate, % / Disease Control (PR + PR + SD) Rate, patients / NE (Not Evaluable), % of patients / NE (Not Evaluable), patients / Objective Response (CR + PR) Rate, patients / PD (Progressive Disease), % of patients / PD (Progressive Disease), patients / PR (Partial Response), patients / Confirmed Objective Response (CR + PR) Rate, % / Confirmed PR (Partial Response), % of patients / Objective Response (CR + PR) Rate, % / PR (Partial Response), % of patients: Oct. 12, 2020; for BOR Complete Response, (percent) / BOR Complete Response, patients / BOR Partial Response, (percent) / BOR Partial Response, patients / BOR Progressive Disease, (percent) / BOR Progressive Disease, patients / BOR Stable Disease, (percent) / BOR Stable Disease, patients: 3 Feb. 2020
# Text: The resistance to, failure to respond to and/or relapse from treatment with a binding agent of the invention and/or other therapeutic agent(s) may be determined according to the Response Evaluation Criteria In Solid Tumors; version 1.1 (RECIST Criteria v1.1).
# The “best overall response” is the best response recorded from the start of the treatment until disease progression/recurrence (the smallest measurements recorded since the treatment started will be used as the reference for PD). Subjects with CR or PR are considered to be objective response. Subjects with CR, PR or SD are considered to be in disease control. Subjects with NE are counted as non-responders. […]
# Clinical trial on GCT1046-01 (ClinicalTrials.gov Identifier: NCT03917381) was designed as a two-part trial, including an ongoing dose escalation part and a planned expansion part.
# The trial consists of 2 parts; a First-in-Human (FIH) dose escalation (Phase I) and an expansion (Phase 11a).
# For dose escalation, subject was required to be a man or […] and was required to have measurable disease according to RECIST 1.1.
substance,measurement,setting,value
"GEN1046: PD-L1×4-1BB bispecific antibody: PD-L1-547-FEAL combined with CD137-009-HC7LC2-FEAR (SEQ ID NOs: 1, 5, 21, 19; 8, 12, 22, 20)","CR (Complete Response), patients",25 mg (N 4),0
same,"Confirmed CR (Complete Response), patients",25 mg (N 4),0
same,"Confirmed Disease Control (PR + PR + SD) Rate, %",25 mg (N 4),25.0%
same,"Confirmed Disease Control (PR + PR + SD) Rate, patients",25 mg (N 4),1
same,"Confirmed NE (Not Evaluable), % of patients",25 mg (N 4),25.0%
same,"Confirmed NE (Not Evaluable), patients",25 mg (N 4),1
same,"Confirmed Objective Response (CR + PR) Rate, patients",25 mg (N 4),0
same,"Confirmed PD (Progressive Disease), % of patients",25 mg (N 4),50.0%
same,"Confirmed PD (Progressive Disease), patients",25 mg (N 4),2
same,"Confirmed PR (Partial Response), patients",25 mg (N 4),0
same,"Confirmed SD (Stable Disease), % of patients",25 mg (N 4),25.0%
same,"Confirmed SD (Stable Disease), patients",25 mg (N 4),1
same,"Disease Control (PR + PR + SD) Rate, %",25 mg (N 4),25.0%
same,"Disease Control (PR + PR + SD) Rate, patients",25 mg (N 4),1
same,"NE (Not Evaluable), % of patients",25 mg (N 4),25.0%
same,"NE (Not Evaluable), patients",25 mg (N 4),1
same,"Objective Response (CR + PR) Rate, patients",25 mg (N 4),0
same,"PD (Progressive Disease), % of patients",25 mg (N 4),50.0%
same,"PD (Progressive Disease), patients",25 mg (N 4),2
same,"PR (Partial Response), patients",25 mg (N 4),0
same,"BOR Complete Response, (percent)",25 mg (n = 2),(0)
same,"BOR Complete Response, patients",25 mg (n = 2),0
same,"BOR Partial Response, (percent)",25 mg (n = 2),(0)
same,"BOR Partial Response, patients",25 mg (n = 2),0
same,"BOR Progressive Disease, (percent)",25 mg (n = 2),(100)
same,"BOR Progressive Disease, patients",25 mg (n = 2),2
same,"BOR Stable Disease, (percent)",25 mg (n = 2),(0)
same,"BOR Stable Disease, patients",25 mg (n = 2),0
same,"CR (Complete Response), patients",50 mg (N 5),0
same,"Confirmed CR (Complete Response), patients",50 mg (N 5),0
same,"Confirmed Disease Control (PR + PR + SD) Rate, %",50 mg (N 5),60.0%
same,"Confirmed Disease Control (PR + PR + SD) Rate, patients",50 mg (N 5),3
same,"Confirmed NE (Not Evaluable), patients",50 mg (N 5),0
same,"Confirmed Objective Response (CR + PR) Rate, patients",50 mg (N 5),0
same,"Confirmed PD (Progressive Disease), % of patients",50 mg (N 5),40.0%
same,"Confirmed PD (Progressive Disease), patients",50 mg (N 5),2
same,"Confirmed PR (Partial Response), patients",50 mg (N 5),0
same,"Confirmed SD (Stable Disease), % of patients",50 mg (N 5),60.0%
same,"Confirmed SD (Stable Disease), patients",50 mg (N 5),3
same,"Disease Control (PR + PR + SD) Rate, %",50 mg (N 5),60.0%
same,"Disease Control (PR + PR + SD) Rate, patients",50 mg (N 5),3
same,"NE (Not Evaluable), patients",50 mg (N 5),0
same,"Objective Response (CR + PR) Rate, patients",50 mg (N 5),0
same,"PD (Progressive Disease), % of patients",50 mg (N 5),40.0%
same,"PD (Progressive Disease), patients",50 mg (N 5),2
same,"PR (Partial Response), patients",50 mg (N 5),0
same,"BOR Complete Response, (percent)",50 mg (n = 5),(0)
same,"BOR Complete Response, patients",50 mg (n = 5),0
same,"BOR Partial Response, (percent)",50 mg (n = 5),(0)
same,"BOR Partial Response, patients",50 mg (n = 5),0
same,"BOR Progressive Disease, (percent)",50 mg (n = 5),(40)
same,"BOR Progressive Disease, patients",50 mg (n = 5),2
same,"BOR Stable Disease, (percent)",50 mg (n = 5),(60)
same,"BOR Stable Disease, patients",50 mg (n = 5),3
same,"CR (Complete Response), patients",80 mg (N 9),0
same,"Confirmed CR (Complete Response), patients",80 mg (N 9),0
same,"Confirmed Disease Control (PR + PR + SD) Rate, %",80 mg (N 9),88.9%
same,"Confirmed Disease Control (PR + PR + SD) Rate, patients",80 mg (N 9),8
same,"Confirmed NE (Not Evaluable), patients",80 mg (N 9),0
same,"Confirmed Objective Response (CR + PR) Rate, %",80 mg (N 9),11.1%
same,"Confirmed Objective Response (CR + PR) Rate, patients",80 mg (N 9),1
same,"Confirmed PD (Progressive Disease), % of patients",80 mg (N 9),11.1%
same,"Confirmed PD (Progressive Disease), patients",80 mg (N 9),1
same,"Confirmed PR (Partial Response), % of patients",80 mg (N 9),11.1%
same,"Confirmed PR (Partial Response), patients",80 mg (N 9),1
same,"Confirmed SD (Stable Disease), % of patients",80 mg (N 9),77.8%
same,"Confirmed SD (Stable Disease), patients",80 mg (N 9),7
same,"Disease Control (PR + PR + SD) Rate, %",80 mg (N 9),88.9%
same,"Disease Control (PR + PR + SD) Rate, patients",80 mg (N 9),8
same,"NE (Not Evaluable), patients",80 mg (N 9),0
same,"Objective Response (CR + PR) Rate, %",80 mg (N 9),22.2%
same,"Objective Response (CR + PR) Rate, patients",80 mg (N 9),2
same,"PD (Progressive Disease), % of patients",80 mg (N 9),11.1%
same,"PD (Progressive Disease), patients",80 mg (N 9),1
same,"PR (Partial Response), % of patients",80 mg (N 9),22.2%
same,"PR (Partial Response), patients",80 mg (N 9),2
same,"BOR Complete Response, (percent)",80 mg (n = 8),(0)
same,"BOR Complete Response, patients",80 mg (n = 8),0
same,"BOR Progressive Disease, (percent)",80 mg (n = 8),(12.5)
same,"BOR Progressive Disease, patients",80 mg (n = 8),1
same,"BOR Stable Disease, (percent)",80 mg (n = 8),(62.5)
same,"BOR Stable Disease, patients",80 mg (n = 8),5
same,"BOR Partial Response, (percent)","80 mg (n = 8), uPR",(25)
same,"BOR Partial Response, patients","80 mg (n = 8), uPR",2^1
same,"CR (Complete Response), patients",100 mg (N 6),0
same,"Confirmed CR (Complete Response), patients",100 mg (N 6),0
same,"Confirmed Disease Control (PR + PR + SD) Rate, %",100 mg (N 6),66.7%
same,"Confirmed Disease Control (PR + PR + SD) Rate, patients",100 mg (N 6),4
same,"Confirmed NE (Not Evaluable), % of patients",100 mg (N 6),33.3%
same,"Confirmed NE (Not Evaluable), patients",100 mg (N 6),2
same,"Confirmed Objective Response (CR + PR) Rate, %",100 mg (N 6),16.7%
same,"Confirmed Objective Response (CR + PR) Rate, patients",100 mg (N 6),1
same,"Confirmed PD (Progressive Disease), patients",100 mg (N 6),0
same,"Confirmed PR (Partial Response), % of patients",100 mg (N 6),16.7%
same,"Confirmed PR (Partial Response), patients",100 mg (N 6),1
same,"Confirmed SD (Stable Disease), % of patients",100 mg (N 6),50.0%
same,"Confirmed SD (Stable Disease), patients",100 mg (N 6),3
same,"Disease Control (PR + PR + SD) Rate, %",100 mg (N 6),66.7%
same,"Disease Control (PR + PR + SD) Rate, patients",100 mg (N 6),4
same,"NE (Not Evaluable), % of patients",100 mg (N 6),33.3%
same,"NE (Not Evaluable), patients",100 mg (N 6),2
same,"Objective Response (CR + PR) Rate, %",100 mg (N 6),16.7%
same,"Objective Response (CR + PR) Rate, patients",100 mg (N 6),1
same,"PD (Progressive Disease), patients",100 mg (N 6),0
same,"PR (Partial Response), % of patients",100 mg (N 6),16.7%
same,"PR (Partial Response), patients",100 mg (N 6),1
same,"CR (Complete Response), patients",140 mg (N 6),0
same,"Confirmed CR (Complete Response), patients",140 mg (N 6),0
same,"Confirmed Disease Control (PR + PR + SD) Rate, %",140 mg (N 6),50.0%
same,"Confirmed Disease Control (PR + PR + SD) Rate, patients",140 mg (N 6),3
same,"Confirmed NE (Not Evaluable), % of patients",140 mg (N 6),16.7%
same,"Confirmed NE (Not Evaluable), patients",140 mg (N 6),1
same,"Confirmed Objective Response (CR + PR) Rate, patients",140 mg (N 6),0
same,"Confirmed PD (Progressive Disease), % of patients",140 mg (N 6),33.3%
same,"Confirmed PD (Progressive Disease), patients",140 mg (N 6),2
same,"Confirmed PR (Partial Response), patients",140 mg (N 6),0
same,"Confirmed SD (Stable Disease), % of patients",140 mg (N 6),50.0%
same,"Confirmed SD (Stable Disease), patients",140 mg (N 6),3
same,"Disease Control (PR + PR + SD) Rate, %",140 mg (N 6),50.0%
same,"Disease Control (PR + PR + SD) Rate, patients",140 mg (N 6),3
same,"NE (Not Evaluable), % of patients",140 mg (N 6),16.7%
same,"NE (Not Evaluable), patients",140 mg (N 6),1
same,"Objective Response (CR + PR) Rate, patients",140 mg (N 6),0
same,"PD (Progressive Disease), % of patients",140 mg (N 6),33.3%
same,"PD (Progressive Disease), patients",140 mg (N 6),2
same,"PR (Partial Response), patients",140 mg (N 6),0
same,"BOR Complete Response, (percent)",140 mg (n = 1),(0)
same,"BOR Complete Response, patients",140 mg (n = 1),0
same,"BOR Partial Response, (percent)",140 mg (n = 1),(0)
same,"BOR Partial Response, patients",140 mg (n = 1),0
same,"BOR Progressive Disease, (percent)",140 mg (n = 1),(100)
same,"BOR Progressive Disease, patients",140 mg (n = 1),1
